From ChEMBL document CHEMBL1201862, “PubChem BioAssay data set” (2004)
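Interpolation was linear, between the two tested concentrations surrounding the appropriate level; five concentrations were tested over 48 hours in 96-well plates. GI50 = concentration required for 50% inhibition of growth.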 Active and inactive are the calls of the source. No stated cut-off is given here; in the data, active = GI50 up to about 1.1 µM and inactive = higher.

How the values were obtained:
Assay in all cases: DTP human tumour cell line panel, 48 h
ACHN = test system: ACHN
CAKI-1 = test system: CAKI-1
CCRF-CEM = test system: CCRF-CEM
COLO 205 = test system: COLO 205
DU-145 = test system: DU-145
HCC 2998 = test system: HCC 2998
HCT-116 = test system: HCT-116
HOP-62 = test system: HOP-62
IGROV-1 = test system: IGROV-1
M14 = test system: M14
MDA-N = test system: MDA-N
NCI/ADR-RES = test system: NCI/ADR-RES
OVCAR-3 = test system: OVCAR-3
PC-3 = test system: PC-3
SF-268 = test system: SF-268
SK-MEL-2 = test system: SK-MEL-2
SNB-75 = test system: SNB-75
T47D = test system: T47D
U-251 = test system: U-251
UO-31 = test system: UO-31

CCCCCCCCCCCCCC(=O)OC(/C=C/C(C)C)C(O)C(O)C(OC)C(=O)NC1CCCCNC1=O (stereo not given)
GI50 (ACHN): 0.689 µM (active)
GI50 (CAKI-1): 0.48 µM (active)
GI50 (CCRF-CEM): 0.587 µM (active)
GI50 (COLO 205): 0.299 µM (active)
GI50 (DU-145): > 10 µM (inactive)
GI50 (HCC 2998): 0.574 µM (active)
GI50 (HCT-116): 0.242 µM (active)
GI50 (HOP-62): 1.61 µM (inactive)
GI50 (IGROV-1): 0.527 µM (active)
GI50 (M14): 0.655 µM (active)
GI50 (MDA-N): 9.04 µM (inactive)
GI50 (NCI/ADR-RES): > 10 µM (inactive)
GI50 (OVCAR-3): 1.81 µM (inactive)
GI50 (PC-3): > 10 µM (inactive)
GI50 (SF-268): 1.52 µM (inactive)
GI50 (SK-MEL-2): 2.65 µM (inactive)
GI50 (SNB-75): 2.05 µM (inactive)
GI50 (T47D): > 10 µM (inactive)
GI50 (U-251): 0.673 µM (active)
GI50 (UO-31): 0.989 µM (active)

CCNC(=S)/N=c1\sc(NCC)nc2sc3c(c12)CCN(N1CCc2c(sc4nc(NCC)s/c(=N\C(=S)NCC)c24)C1)C3
GI50 (ACHN): 62.8 µM (inactive)
GI50 (CAKI-1): > 100 µM (inactive)
GI50 (CCRF-CEM): 41.9 µM (inactive)
GI50 (COLO 205): 57.4 µM (inactive)
GI50 (DU-145): 77.8 µM (inactive)
GI50 (HCC 2998): > 100 µM (inactive)
GI50 (HCT-116): 19.5 µM (inactive)
GI50 (HOP-62): 57.3 µM (inactive)
GI50 (IGROV-1): 39.8 µM (inactive)
GI50 (M14): 46.5 µM (inactive)
GI50 (MDA-N): 91.4 µM (inactive)
GI50 (NCI/ADR-RES): > 100 µM (inactive)
GI50 (OVCAR-3): > 100 µM (inactive)
GI50 (PC-3): > 100 µM (inactive)
GI50 (SF-268): > 100 µM (inactive)
GI50 (SK-MEL-2): > 100 µM (inactive)
GI50 (SNB-75): > 100 µM (inactive)
GI50 (T47D): 42.4 µM (inactive)
GI50 (U-251): 33.3 µM (inactive)
GI50 (UO-31): > 100 µM (inactive)

CC1=NN(c2ccc(C)cc2)C2(C1)SCC(=O)N2c1nc2ccccc2s1 (stereo not given)
GI50 (ACHN): 15.6 µM (inactive)
GI50 (CAKI-1): 31 µM (inactive)
GI50 (CCRF-CEM): 5.22 µM (inactive)
GI50 (COLO 205): 22.7 µM (inactive)
GI50 (DU-145): 29.5 µM (inactive)
GI50 (HCC 2998): 22.9 µM (inactive)
GI50 (HCT-116): 17.8 µM (inactive)
GI50 (HOP-62): 16.9 µM (inactive)
GI50 (IGROV-1): 12.9 µM (inactive)
GI50 (M14): 22.7 µM (inactive)
GI50 (MDA-N): 20.7 µM (inactive)
GI50 (NCI/ADR-RES): 16.2 µM (inactive)
GI50 (OVCAR-3): 12.2 µM (inactive)
GI50 (PC-3): 20.5 µM (inactive)
GI50 (SF-268): 20.2 µM (inactive)
GI50 (SK-MEL-2): 21.6 µM (inactive)
GI50 (SNB-75): 16.1 µM (inactive)
GI50 (T47D): 11.8 µM (inactive)
GI50 (U-251): 16.6 µM (inactive)
GI50 (UO-31): 22.9 µM (inactive)

CCN(CC)CCCNc1nncc2cc3c([nH]c4ccccc43)c(C)c12
GI50 (ACHN): 10.2 µM (inactive)
GI50 (CAKI-1): 33.4 µM (inactive)
GI50 (CCRF-CEM): 4.1 µM (inactive)
GI50 (COLO 205): 8.75 µM (inactive)
GI50 (DU-145): 12 µM (inactive)
GI50 (HCC 2998): 11 µM (inactive)
GI50 (HCT-116): 6.01 µM (inactive)
GI50 (HOP-62): 12.9 µM (inactive)
GI50 (IGROV-1): 3.12 µM (inactive)
GI50 (M14): 20.5 µM (inactive)
GI50 (MDA-N): 16.4 µM (inactive)
GI50 (NCI/ADR-RES): 48.9 µM (inactive)
GI50 (OVCAR-3): 10.4 µM (inactive)
GI50 (PC-3): 8.13 µM (inactive)
GI50 (SF-268): 8.18 µM (inactive)
GI50 (SK-MEL-2): 36.4 µM (inactive)
GI50 (SNB-75): 13.2 µM (inactive)
GI50 (T47D): 13.3 µM (inactive)
GI50 (U-251): 6.04 µM (inactive)
GI50 (UO-31): 12.1 µM (inactive)

COC(=O)/C=C\C(C#N)(C#N)/N=C/c1ccc(Br)cc1
GI50 (ACHN): 2.97 µM (inactive)
GI50 (CAKI-1): 2.66 µM (inactive)
GI50 (CCRF-CEM): 1.54 µM (inactive)
GI50 (COLO 205): 3.37 µM (inactive)
GI50 (DU-145): 12.1 µM (inactive)
GI50 (HCC 2998): 16.9 µM (inactive)
GI50 (HCT-116): 2.57 µM (inactive)
GI50 (HOP-62): 16.7 µM (inactive)
GI50 (IGROV-1): 14.3 µM (inactive)
GI50 (M14): 7.26 µM (inactive)
GI50 (MDA-N): 5.71 µM (inactive)
GI50 (NCI/ADR-RES): 20.2 µM (inactive)
GI50 (OVCAR-3): 12 µM (inactive)
GI50 (PC-3): 13.4 µM (inactive)
GI50 (SF-268): 15.5 µM (inactive)
GI50 (SK-MEL-2): 19.3 µM (inactive)
GI50 (SNB-75): 15 µM (inactive)
GI50 (T47D): 3.63 µM (inactive)
GI50 (U-251): 13.6 µM (inactive)
GI50 (UO-31): 4.36 µM (inactive)

CC(C)(C)c1cc2c(OC/C=C/c3ccccc3)c(c1)Cc1cc(C(C#N)(OC/C=C/c3ccccc3)OC/C=C/c3ccccc3)cc(c1OC/C=C\c1ccccc1)Cc1cc(C(C)(C)C)cc(c1OC/C=C/c1ccccc1)Cc1cc(C(C#N)(OC/C=C\c3ccccc3)OC/C=C/c3ccccc3)cc(c1OC/C=C\c1ccccc1)C2 (stereo not given)
GI50 (ACHN): > 100 µM (inactive)
GI50 (CAKI-1): > 100 µM (inactive)
GI50 (CCRF-CEM): > 100 µM (inactive)
GI50 (COLO 205): > 100 µM (inactive)
GI50 (DU-145): > 100 µM (inactive)
GI50 (HCC 2998): > 100 µM (inactive)
GI50 (HCT-116): > 100 µM (inactive)
GI50 (HOP-62): > 100 µM (inactive)
GI50 (IGROV-1): > 100 µM (inactive)
GI50 (M14): 36.6 µM (inactive)
GI50 (MDA-N): > 100 µM (inactive)
GI50 (NCI/ADR-RES): > 100 µM (inactive)
GI50 (OVCAR-3): > 100 µM (inactive)
GI50 (PC-3): > 100 µM (inactive)
GI50 (SF-268): > 100 µM (inactive)
GI50 (SK-MEL-2): > 100 µM (inactive)
GI50 (SNB-75): > 100 µM (inactive)
GI50 (T47D): > 100 µM (inactive)
GI50 (U-251): > 100 µM (inactive)
GI50 (UO-31): > 100 µM (inactive)
